Measured values: paper doi:10.1101/2024.03.22.586364, “Development of quantitative high-throughput screening assays to identify, validate, and optimize small-molecule stabilizers of misfolded β-glucocerebrosidase with therapeutic potential for Gaucher disease and Parkinson’s disease” (bioRxiv, 2024)
Residue numbers refer to the chain shown, from its start. Where a name gives a salt, the structure may show the parent alone.

How the values were obtained:
HiBiT-GCase-WT = biological target: T1, HiBiT-GCase-WT (Homo sapiens, UniProt P04062); experiment: HiBiT-GCase-WT lytic luminescence assay, H4 reporter cells; type: cell-based; details: 24 h treatment, 1536-well format
T1 construct: expressed in transfected cells; host or cells: GBA1-KO H4 human neuroglioma cells; transgene stably integrated at the CLYBL safe-harbor locus by TALENs; CAG promoter
T1 sequence (P04062 40-536): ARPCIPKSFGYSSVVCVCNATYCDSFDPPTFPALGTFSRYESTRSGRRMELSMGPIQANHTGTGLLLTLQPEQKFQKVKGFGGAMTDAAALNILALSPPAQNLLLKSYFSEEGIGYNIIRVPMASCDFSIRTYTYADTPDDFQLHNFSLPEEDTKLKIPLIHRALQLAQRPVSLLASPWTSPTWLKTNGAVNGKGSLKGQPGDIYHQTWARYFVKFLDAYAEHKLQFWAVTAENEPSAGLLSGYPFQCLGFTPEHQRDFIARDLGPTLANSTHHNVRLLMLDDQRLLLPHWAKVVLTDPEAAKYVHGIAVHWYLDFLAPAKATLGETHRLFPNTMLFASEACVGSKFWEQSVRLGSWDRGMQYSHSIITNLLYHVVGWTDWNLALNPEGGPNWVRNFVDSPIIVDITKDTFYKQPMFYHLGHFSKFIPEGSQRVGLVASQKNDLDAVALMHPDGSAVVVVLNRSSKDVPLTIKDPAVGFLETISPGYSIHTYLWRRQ
From the text: (§1) Figure 1. HiBiT-tagged GCase retains normal trafficking and function, enabling a high-throughput screening assay measuring cellular GCase levels. (A) GCase was labeled with a small (1.3 kDa), pro-luminescent, N-terminal HiBiT peptide tag immediately following the signal peptide (SP) sequence. (B) This HiBiT-GCase reporter (WT, N370S, or L444P) was engineered into a human Citrate Lyase Beta-Like (CLYBL) intragenic safe-harbor locus within a GBA1-KO H4 cell background using TALEN-enhanced integrative gene transfer. (C) Co-localization of GCase (green) with lysosomal marker LAMP1 (magenta) was determined by immunofluorescent staining. […] (G) GCase protein levels were quantitated by AlphaLISA (Amplified Luminescent Proximity Homogeneous Assay) utilizing a sandwich configuration of two monoclonal antibodies recognizing non-overlapping epitopes, hGCase-1/23 (which was biotinylated and associated with a streptavidin-coated donor bead) and hGCase-1/17 (which was directly conjugated to an acceptor bead). […] (H) GCase activity was measured in cell lysates using the fluorogenic substrate 4-methylumbelliferyl-β-D-glucopyranoside. Relative GCase activity was calculated by adjusting for protein concentration, correcting for GBA1-KO H4 cell background, and normalizing to GBA1-WT signal. […]

HiBiT-GCase-N370S = biological target: T2, HiBiT-GCase-N370S (Homo sapiens, UniProt P04062, N409S); experiment: HiBiT-GCase-N370S lytic luminescence assay, H4 reporter cells; type: cell-based; details: 24 h treatment, 1536-well format
T2 construct: expressed in transfected cells; host or cells: GBA1-KO H4 human neuroglioma cells; transgene stably integrated at the CLYBL safe-harbor locus by TALENs; CAG promoter
T2 sequence (P04062 40-536 N409S): T1 sequence (P04062 40-536) with N370S
From the text: as §1

recombinant GCase-WT = biological target: T3, recombinant GCase-WT (Homo sapiens, UniProt P04062); experiment: Microscale thermophoresis (MST) target engagement; type: binding; details: 50 mM sodium citrate buffer (pH 5.5); n = 2; read-out: dissociation constant (Kd)
T3 construct: purchased Bio-Techne 7410-GHB-020
T3 sequence (P04062 40-536): T1 sequence (P04062 40-536)
Method: Microscale thermophoresis (MST) experiments were performed using the Monolith NT.Automated instrument (NanoTemper Technologies). […] The recombinant GCase was further diluted with assay buffer (50 mM sodium citrate, pH 5.5) to 0.160 mg/mL and incubated (RT) for 30 min with 50 nM RED-tris-NTA 2nd Generation dye from the Monolith His-Tag Labeling Kit (Cat.#MO-L018; NanoTemper Technologies). The labeling reaction mixture was centrifuged for 10 min at 4°C and 15,000 × g to remove protein aggregates, after which the supernatant was diluted 2.5x with assay buffer. For each compound measured, a 12-point, 2x titration series of compound in DMSO was prepared; 1 μL of compound in DMSO from each point in the titration series was combined with 9 μL of assay buffer and 10 μL of labeled GCase in a 384-well plate, which was left standing for 30 min (RT). The resultant final concentration of labeled GCase was ~570 nM (in 5% DMSO).

[1] = system: integrated stress response (ISR); parameters: method as in PMID 23741617; details: read-out: IC50 (potency with which ISRIB modifies its target); cited from earlier work

| Kd (recombinant GCase-WT) | Compound | effect on HiBiT-GCase-WT levels (in words) (HiBiT-GCase-WT) | effect on HiBiT-GCase-N370S levels (in words) (HiBiT-GCase-N370S) | IC50 [1] |
| --- | --- | --- | --- | --- |
| – | C#Cc1ccc(NC(=O)c2cnn3c(C)cc(C)nc23)cc1 [NCGC758] | inactive in all three lines | inactive in all three lines | – |
| 3750 nM | O=C(COc1ccccc1C(=O)Nc1ccc(I)cc1)Nc1ccc(I)cc1 [NCGC00241326-01, N-(4-iodophenyl)-2-(2-((4-iodophenyl)amino)-2-oxoethoxy)benzamide] | – | – | – |
| – | Nc1c(Br)cc(Br)cc1CN[C@H]1CC[C@H](O)CC1 [NCGC00371077-02, Ambroxol HCl] | increased HiBiT-GCase levels in all three lines | increased HiBiT-GCase levels in all three lines | – |
| – | O=C(COc1ccc(Cl)cc1)N[C@H]1CC[C@H](NC(=O)COc2ccc(Cl)cc2)CC1 [NCGC00384174-12, trans-ISRIB] | – | – | 5 nM |
